Our source for the IC50 values is ChEMBL document CHEMBL1121538, “Nucleosides. 116. 1-(beta-D-Xylofuranosyl)-5-fluorocytosines with a leaving group on the 3' position. Potential double-barreled masked precursors of anticancer nucleosides” (1980).

Holding throughout (format): functional
Details in all cases: read-out: ID50 (the source's name)

The subject of test [1] is L5178Y. In words: The compound was tested for anticancer activity against L5178Y ([…] resistant) cell lines of mouse leukemia.
Test [2] concerns L5178Y. Nature of the test: The compound was tested for anticancer activity against L5178Y (sensitive) cell lines of mouse leukemia.
The test system of test [3] is P815. Nature of the test: The compound was tested for anticancer activity against P815 (sensitive) cell lines of mouse leukemia.
Test [4] relates to P815. Nature of the test: The compound was tested for anticancer activity against P815([…] resistant) cell lines of mouse leukemia.

Values after ≈ are worked out from the molar mass of the structure shown.

`Nc1ccn(C2OC(CO)C(Br)C2O)c(=O)n1` (stereo not drawn): the IC50 in test [1] was greater than 100 µg/mL; in test [2] it was 0.03 µg/mL (≈ 0.098 µM); in test [3] it was 0.05 µg/mL (≈ 0.163 µM); in test [4] it was greater than 100 µg/mL.
As to `Nc1nc(=O)n(C2OC(CO)C(Br)C2O)cc1F` (stereo not drawn), the IC50 in test [1] amounted to 2.6 µg/mL (≈ 8.02 µM); in test [2], 0.06 µg/mL (≈ 0.185 µM); in test [3] it was 0.2 µg/mL (≈ 0.617 µM); in test [4] it was 5 µg/mL (≈ 15.4 µM).
`Nc1nc(=O)n(C2OC(CO)C(Cl)C2O)cc1F` (stereo not drawn): the IC50 was 71 µg/mL (≈ 254 µM) in test [1], 1 µg/mL (≈ 3.58 µM) in test [2], 0.7 µg/mL (≈ 2.5 µM) in test [3] and greater than 30 µg/mL in test [4].
Consider `Nc1ccn(C2OC(CO)C(Cl)C2O)c(=O)n1` (stereo not drawn), for which the IC50 in test [1] was greater than 100 µg/mL; in test [2], 2 µg/mL (≈ 7.64 µM); in test [3], 0.8 µg/mL (≈ 3.06 µM); in test [4], greater than 100 µg/mL.
Consider `Nc1ccn(C2OC(CO)C(I)C2O)c(=O)n1` (stereo not drawn), for which the IC50 in test [1] is greater than 100 µg/mL; in test [2], 0.1 µg/mL (≈ 0.283 µM); in test [3] it was 0.3 µg/mL (≈ 0.85 µM); in test [4], greater than 100 µg/mL.
With `Nc1ccn([C@@H]2O[C@H](CO)[C@H](F)[C@H]2O)c(=O)n1`, the IC50 in test [1] is greater than 100 µg/mL; in test [2], 37 µg/mL (≈ 151 µM); in test [3] it was 21 µg/mL (≈ 85.6 µM); in test [4], greater than 100 µg/mL.
For `CS(=O)(=O)O[C@@H]1[C@@H](O)[C@H](n2ccc(N)nc2=O)O[C@@H]1CO`, the IC50 was greater than 100 µg/mL in test [1], 0.07 µg/mL (≈ 0.218 µM) in test [2], 0.03 µg/mL (≈ 0.0934 µM) in test [3] and 22 µg/mL (≈ 68.5 µM) in test [4].
As for `Cc1ccc(S(=O)(=O)O[C@@H]2[C@@H](O)[C@H](n3cc(F)c(N)nc3=O)O[C@@H]2CO)cc1`, the IC50 in test [1] came out at 8 µg/mL (≈ 19.3 µM); in test [2] it was 0.06 µg/mL (≈ 0.144 µM); in test [3] it was 0.02 µg/mL (≈ 0.0481 µM); in test [4], 3.9 µg/mL (≈ 9.39 µM).
Take `Cc1ccc(S(=O)(=O)O[C@@H]2[C@@H](O)[C@H](n3ccc(N)nc3=O)O[C@@H]2CO)cc1`: the IC50 in test [1] is greater than 100 µg/mL; in test [2], 0.08 µg/mL (≈ 0.201 µM); in test [3], 0.06 µg/mL (≈ 0.151 µM); in test [4], greater than 30 µg/mL.
In the same order, the values of `CS(=O)(=O)O[C@@H]1[C@@H](O)[C@H](n2cc(F)c(N)nc2=O)O[C@@H]1CO` are 5.3 µg/mL (≈ 15.6 µM), 0.05 µg/mL (≈ 0.147 µM), 0.02 µg/mL (≈ 0.0589 µM) and 6 µg/mL (≈ 17.7 µM).
`Nc1nc(=O)n(C2OC(CO)C(I)C2O)cc1F` (stereo not drawn): the IC50 in test [1] is 10 µg/mL (≈ 26.9 µM); in test [2], 0.08 µg/mL (≈ 0.216 µM); in test [3], 0.1 µg/mL (≈ 0.269 µM); in test [4] it was 8 µg/mL (≈ 21.6 µM).
The matching figures for `Nc1ccn([C@@H]2O[C@H](CO)[C@@H](O)[C@@H]2O)c(=O)n1` [CYTARABINE]: 79 µg/mL (≈ 325 µM), 20 µg/mL (≈ 82.2 µM), 10 µg/mL (≈ 41.1 µM) and 40 µg/mL (≈ 164 µM).
